The conditions of series [1]: cited from earlier work.
The conditions of series [2]: administered orally; cited from earlier work.
In a further series the test system is Rhesus monkeys. The following applies: cited from earlier work.
For series [3] the following is noted: cited from earlier work. This is another data set of the same source.
The conditions of series [4]: cited from earlier work. This is another data set of the same source.
The conditions of series [5]: cited from earlier work. The source holds these as a separate data set.
For series [6] the following is noted: in vivo.
Experimental: It is necessary to combine both the oral dose and the pharmacokinetics data to estimate the target flux of ketorolac. For an oral dosage regimen of ketorolac tromethamine, it is recommended that 10 mg be given every 6 hours as needed for short-term management of moderate to severe pain.
The conditions of series [7]: cited from earlier work; for Solubilities: saturated.
In series [8] the test system is patients with coronary heart disease. The following applies: single oral dose of 2 mg; cited from earlier work.
The conditions of series [9]: oral doses; cited from earlier work.
The next series relates to rats. The note with it: rat, not told; cited from earlier work.
For series [10] the following is noted: cited from earlier work. The source holds these as a separate data set.
Series [11] in a line: in vitro skin flux of ketorolac. The following applies: Table 5.
Experimental: Generally, the protocol was as follows.
Human cadaver epidermis was removed carefully from dermatoned full thickness skin after the skin had been heated in deionized water at 60° C. for one to two minutes. The stripped epidermis was placed between two polyethylene plastic sheets and refrigerated at -20° C. until use. Discs of the epidermis having a diameter of 5/8" were punched out with a die and tested for leakage by soaking the epidermis in water, then spreading it flat on a plastic sheet, and pressing the top of the epidermis lightly a few times with a piece of laboratory tissue. Leakage of the epidermis was detected by appearance of wet spots on the tissue.
Epidermis discs proving to be free of leaks were placed on top of a receiver cell of a modified Franz vertical diffusion cell assembly, and a donor cell was placed on top of the receiver cell. A small magnetic stir bar was inserted through the sampling port into the donor cell compartment. The diffusion cell assemblies were clamped together and transferred to a skin permeation room (controlled at 32° C.) The receiver cell compartments were filled with 8.0 ml of isotonic phosphate buffer, pH 7.0. […]
The quantity of ketorolac tromethamine in each sample was assayed by HPLC analytical methods.
In a further series the test system is coronary strips. The following applies: vasodilation; cited from earlier work.

Where two headings read alike, the source gives them in different places.

These results are taken from patent publication US5962013A, “Monolithic matrix transdermal delivery system for administering molsidomine” (priority 1998, dated 1999).

For `O=C(c1ccccc1)c1ccc2n1CC[C@@H]2C(=O)O` [(-)-S isomer], the “analgesic potency relative to (+)-R isomer” value in series [1] (A. Guzman et al., 1986) was “many times greater analgesic potency”.
`O=C(c1ccccc1)c1ccc2n1CCC2C(=O)O` (centres unmarked) [Ketorolac tromethamine]: the “anti-inflammatory potency relative to indomethacin or naproxen” value in series [2] is on record as 2-3 times. Moreover, the “estimated in vivo skin flux” value with Rhesus monkeys (rhesus monkey) was “very high”. Further, the volume of distribution in [3] (in vivo) is 7.7 lit/70 kg. For the same molecule, the oral bioavailability in series [3] (oral) is 80-100%. The “analgesic potency relative to aspirin” value in series [1] (administered orally) is listed as “about 180 times”. Moreover, the “analgesic potency relative to indomethacin” value in series [1] (administered orally) is listed as 3-6 times. In [1] (administered orally), the “analgesic potency relative to naproxen” value was 25-50 times. Further, the Solubilities is 110 mg/mL in series [4] (PG (50%), Oleic acid (50%)); 200 mg/mL in [4] (propylene glycol (PG)); 725 mg/mL in series [4] (water). Also, the shelf-life result in [5] (aqueous solutions pH 4-8, 25° C.) was “very long shelf-life”. Further, the “aqueous solubility relative to ketorolac” value in [5] was “greater aqueous solubility than ketorolac”. The light sensitivity result in series [5] (decarboxylation, especially in the presence of oxygen) is recorded as “light sensitive”. Also, in series [5] (pH 4-8), the “stability in aqueous solutions” value is listed as “extremely stable”.
For `O=C(c1ccccc1)c1ccc2n1CCC2C(=O)O` (centres unmarked) [Ketorolac], the “amount to be delivered during a 24 hour period” value in series [6] lay in the range of 12.5 to 19.2 mg. Also, the “time to high Cmax” value with Rhesus monkeys (percutaneous, solution formulations) is at most 8 h. Also, the “enhancement of percutaneous absorption by propylene glycol and linoleic acid, or propylene glycol and oleic acid” value with Rhesus monkeys (solution formulations) is “effective”. Also, the total clearance in series [3] (in vivo) was 1750 ml/hr/70 kg. Besides, the “plasma concentration at 6 hour” value in series [3] (oral administration of 10 mg, 6 hour) is 0.2 to 0.3 µg/mL. Besides, the Cmax result in [3] (oral administration of 10 mg) is given as “about 0.8 μg/ml”.
As to `CCOC(=O)[N-]c1cn(N2CCOCC2)n[o+]1` [Molsidomine, N-5-ethoxycarbonyl-3-morpholinosydnonimine], the solubility result in series [7] (CHCl3) is recorded as “freely soluble”; in series [7] (dilute HCl, ethanol, ethyl acetate, methanol), “soluble”; in series [7] (ether, petroleum ether) it was “very slightly soluble”; in series [7] (propylene glycol and a variety of organic solvents), “soluble”; in series [7] (water, acetone, benzene) it was “sparingly soluble”. Moreover, the Solubilities in series [7] (Glycerin, 25° C.) is listed as 1.80%; in series [7] (Glycol salicylate, 25° C.), 15.1%; in series [7] (Isopropyl myristate, 25° C.) it was 0.09%; in series [7] (Octyl.decyl oil, 25° C.), 0.36%; in series [7] (Oleic Acid, 25° C.) it was 1.37%; in series [7] (PEG 400, 25° C.), 5.23%. For the same molecule, the Solubilities in [7] (Propylene glycol, 25° C.) was 6.37%. Besides, in series [8], the “duration of anti-anginal effects” value is 3 to 5 h. For the same molecule, the bioavailability in series [9] was 44%. The estimated flux with rats is recorded as around 399 μg/hr-cm^2. Moreover, the pKa in series [10] (25° C.) is on record as 3.34. For the same molecule, in series [10] (pH 5-7, 20° C.), the t90 is on record as 2.6 years.
In the case of `CC(O)CO` (centres unmarked) [PG, propylene glycol], the “Effect on skin flux (factorial design)” value in series [11] is 8.72.
Turning to `N#CCN(N=O)N1CCOCC1` [SIN-1A], the “dependence of activity on cysteine” value in the series with coronary strips was “active in both the presence and the absence of cysteine”.
With `O=[N+]([O-])OCC(CO[N+](=O)[O-])O[N+](=O)[O-]` [nitroglycerin], in the series with coronary strips, the “dependence of activity on cysteine” value is “depends on the presence of cysteine”.
